The text below walks through data of patent US9505781B2, “Compositions comprising thienopyrimidine and thienopyridine compounds and methods of use thereof” (The Regents of the University of Michigan, priority 2013, dated 2016).

In this test the target is T1, menin-MLL interaction (Homo sapiens, UniProt O00255).
T1 sequence (O00255 1-610): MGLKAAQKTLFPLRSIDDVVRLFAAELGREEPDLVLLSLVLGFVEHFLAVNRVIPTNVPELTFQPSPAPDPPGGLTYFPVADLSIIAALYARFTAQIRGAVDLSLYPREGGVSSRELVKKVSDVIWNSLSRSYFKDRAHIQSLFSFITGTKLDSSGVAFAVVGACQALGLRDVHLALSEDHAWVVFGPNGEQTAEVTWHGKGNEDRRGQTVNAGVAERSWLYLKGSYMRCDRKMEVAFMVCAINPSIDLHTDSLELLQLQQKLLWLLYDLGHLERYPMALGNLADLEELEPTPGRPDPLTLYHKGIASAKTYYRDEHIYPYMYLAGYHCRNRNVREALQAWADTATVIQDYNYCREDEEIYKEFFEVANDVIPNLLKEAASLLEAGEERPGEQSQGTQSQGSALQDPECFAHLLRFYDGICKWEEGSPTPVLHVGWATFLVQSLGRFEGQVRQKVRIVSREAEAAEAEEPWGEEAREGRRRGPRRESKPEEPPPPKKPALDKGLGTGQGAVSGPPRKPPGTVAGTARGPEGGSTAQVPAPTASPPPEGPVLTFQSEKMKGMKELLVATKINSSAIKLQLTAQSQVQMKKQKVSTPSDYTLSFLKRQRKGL
In words: biochemical.

Structures are written as SMILES. Bounds are passed on as bounds.

Description: Compounds that inhibit the interaction decrease the fluorescence anisotropy which is being used as a read-out for compound screening and for IC50 determination.

As usually defined, the IC50 is the concentration needed to halve the response being measured. A lower IC50 goes with inhibition by little substance. As to `N#CCc1ccc(CC(=O)N2CCN(c3ncnc4sc(CC(F)(F)F)cc34)CC2)cc1` [Compound 77], the IC50 was in the range of 100 to 500 nM.

On to `CS(=O)(=O)Nc1ccc(CC(=O)N2CCN(C3=NC=NC4SC(CC(F)(F)F)=CC34)CC2)c(Cl)c1` (centres unmarked) [Compound 64], for which the IC50 was < 100 nM.

`CC(=O)Nc1ccc(CN2CCC(Nc3ncnc4sc(CC(F)(F)F)cc34)CC2)cc1` [Compound 130] displayed an IC50 of 100 to 500 nM.

The compound `O=C1CCC(c2ccc(CC(=O)N3CCN(c4ncnc5sc(CC(F)(F)F)cc45)CC3)cc2)N1` (centres unmarked) [Compound 80] gave an IC50 of 100 to 500 nM.

Take `Oc1ccc(CN2CCC(Nc3ncnc4sc(CC(F)(F)F)cc34)CC2)cc1` [Compound 105, 4-((4-((6-(2,2,2-trifluoroethyl)thieno[2,3-d]pyrimidin-4-yl)amino)piperidin-1-yl)methyl)phenol]: the IC50 is < 100 nM.

On to `Cc1c(CN2CCC(Nc3ncnc4sc(CC(F)(F)F)cc34)CC2)ccc2c1cc(C#N)n2CCN1CCN(C(=O)Cc2ccccc2)CC1` [Compound 340], for which the IC50 is < 100 nM.

`NS(=O)(=O)c1ccc(CN2CCC(CNc3ncnc4sc(CC(F)(F)F)cc34)CC2)c(Cl)c1` [Compound 253] showed an IC50 of 100 to 500 nM.

Regarding `N#Cc1cc2cc(CN3CCC(Nc4ncnc5sc(CC(F)(F)F)cc45)CC3)ccc2n1CC(O)(CO)COCCC1CCCCC1` (centres unmarked) [Compound 413], the IC50 was 100 to 500 nM.

Regarding `Cc1c(CN2CCC(Nc3ncnc4sc(CC(F)(F)F)cc34)CC2)ccc2c1cc(C#N)n2Cc1cnc[nH]1` [Compound 349], the IC50 was < 100 nM.

Turning to `FC(F)(F)c1nnc(N2CCN(c3ncnc4sc(C5CC5)cc34)CC2)s1` [Compound 28], the IC50 lay within 500 to 2000 nM.

The compound `FC(F)(F)Cc1cc2c(NCC3CCN(Cc4ccc(OC(F)(F)F)cc4)CC3)ncnc2s1` [Compound 271] had an IC50 of 500 to 2000 nM.

`COc1cccc(CC(=O)N2CCN(c3ncnc4sc(CC(F)(F)F)cc34)CC2)c1` [Compound 95] gave an IC50 of 500 to 2000 nM.

The compound `Oc1ccccc1CN1CCC(Nc2ncnc3sc(CC(F)(F)F)cc23)CC1` [Compound 114] gave an IC50 of 100 to 500 nM.

For `Cc1c(CN2CCC(Nc3ncnc4sc(CC(F)(F)F)cc34)CC2)ccc2c1cc(C#N)n2CCN1CCN(C(=O)CCC(F)(F)F)CC1` [Compound 342], the IC50 was < 100 nM.

On to `Cc1c(CN2CCC(Nc3ncnc4sc(CC(F)(F)F)cc34)CC2)ccc2c1cc(C#N)n2Cc1ncco1` [Compound 353], for which the IC50 is < 100 nM.

Consider `CCn1c(C#N)cc2cc(CN3CCC(Nc4ncnc5sc(CC(F)(F)F)cc45)CC3)ccc21` [Compound 177], for which the IC50 is < 100 nM.

Turning to `FC(F)(F)Cc1cc2c(N3CCN(c4nnc(CCCC5CCCCC5)s4)CC3)ncnc2s1` [Compound 17], the IC50 was in the range of 500 to 2000 nM.

Take `FC(F)(F)Cc1cc2c(N[C@H]3CCN(Cc4ccccc4)C[C@@H]3OCc3ccccc3)ccnc2s1` [Compound 174]: the IC50 fell in the range of 100 to 500 nM.

Take `CCCc1cc2c(N3CCN(C4CCCCCC4)CC3)ncnc2s1` [Compound 31]: the IC50 lay in the range of 500 to 2000 nM.

As for `CN(c1ccc(CC(=O)N2CCN(c3ncnc4sc(CC(F)(F)F)cc34)CC2)cc1)S(C)(=O)=O` [Compound 46], the IC50 was < 100 nM.

`Cn1ccnc1Cn1c(C#N)cc2cc(CN3CCC(Nc4ncnc5sc(CC(F)(F)F)cc45)CC3)ccc21` [Compound 203]: the IC50 was < 100 nM.

For the compound `N#Cc1cc2c(Cl)c(CN3CCC(Nc4ncnc5sc(CC(F)(F)F)cc45)CC3)ccc2n1CC(N)=O` [Compound 225], the IC50 is < 100 nM.

Regarding `CCc1ccc(CN2CCC(Nc3ncnc4sc(CC(F)(F)F)cc34)CC2)cc1` [Compound 118], the IC50 lay in the range of 100 to 500 nM.

In turn, `Cc1ccc(CN2CCC(Nc3ncnc4sc(CC(F)(F)F)cc34)CC2)c(C)c1` [Compound 120] displayed an IC50 of 100 to 500 nM.

`FC(F)(F)Cc1cc2c(NCC3CCN(Cc4ccccc4Cl)CC3)ncnc2s1` [Compound 260] yielded an IC50 of 100 to 500 nM.

Turning to `N#C[C@@H]1C[C@@H]1c1ccc(CN2CCC(Nc3ncnc4sc(CC(F)(F)F)cc34)CC2)cc1` [Compound 159], the IC50 lay in the range of 500 to 2000 nM.

As to `CO[C@H](CO)Cn1c(C#N)cc2cc(CN3CCC(Nc4ncnc5sc(CC(F)(F)F)cc45)CC3)ccc21` [Compound 191], the IC50 is < 100 nM.

The compound `O=C(N1CCCCC1)N1CCN(c2ncnc3sc(CC(F)(F)F)cc23)CC1` [Compound 91] displayed an IC50 of 500 to 2000 nM.

Turning to `N#CCn1c(C#N)cc2cc(CN3CCC(Nc4ncnc5sc(CC(F)(F)F)cc45)CC3)ccc21` [Compound 197], the IC50 is < 100 nM.

`N#Cc1ccc(CN2CCC(CNc3ncnc4sc(CC(F)(F)F)cc34)CC2)c(Cl)c1` [Compound 256] had an IC50 of 100 to 500 nM.

Turning to `Cc1c(CN2CCC(Nc3ncnc4sc(CC(F)(F)F)cc34)CC2)ccc2c1cc(C#N)n2CCN1CCN(C)C(=O)C1` [Compound 356], the concentration for half-maximal inhibition (IC50) was < 100 nM.

Turning to `NS(=O)(=O)Cc1ccc(CC(=O)N2CCN(c3ncnc4sc(CC(F)(F)F)cc34)CC2)c(F)c1` [Compound 78], the IC50 is 100 to 500 nM.

In the case of `CN(c1ccc(CC(=O)N2CCN(C3=NC=NC4SC(CC(F)(F)F)=CC34)CC2)c(Cl)c1)S(C)(=O)=O` (centres unmarked) [Compound 65], the IC50 was < 100 nM.

As to `Cc1c(CN2CCC(Nc3ncnc4sc(CC(F)(F)F)cc34)CC2)ccc2c1cc(C#N)n2CCN1CCN(C(C)C)CC1` [Compound 357], the IC50 was < 100 nM.

Take `CNS(=O)(=O)c1ccc(CC(=O)N2CCN(c3ncnc4sc(CC(F)(F)F)cc34)CC2)cc1` [Compound 82]: the IC50 lay within 100 to 500 nM.

For `CC(C)N(c1ccc(CC(=O)N2CCN(c3ncnc4sc(CC(F)(F)F)cc34)CC2)cc1)S(C)(=O)=O` [Compound 103], the IC50 was 500 to 2000 nM.

Regarding `COc1ccc(CC(=O)N2CCN(c3ncnc4sc(CC(F)(F)F)cc34)CC2)cc1` [Compound 74], the IC50 was 100 to 500 nM.

In turn, `NCc1ccc(CN2CCC(Nc3ncnc4sc(CC(F)(F)F)cc34)CC2)cc1` [Compound 137] gave an IC50 of 500 to 2000 nM.

As for `CS(=O)(=O)N1CCC[C@H]1CN[C@@H]1CN(Cc2ccccc2)CC[C@H]1Nc1ncnc2sc(CC(F)(F)F)cc12` [Compound 173], the IC50 was 100 to 500 nM.

For `FC(F)(F)Cc1cc2c(NC3CCN(Cc4ccc(N5CCCCC5)cc4)CC3)ncnc2s1` [Compound 145], the IC50 fell in the range of 500 to 2000 nM.

`COc1c(CN2CCC(Nc3ncnc4sc(CC(F)(F)F)cc34)CC2)ccc2[nH]c(C#N)cc12` [Compound 180, 4-methoxy-5-((4-((6-(2,2,2-trifluoroethyl)thieno[2,3-d]pyrimidin-4-yl)amino)piperidin-1-yl)methyl)-1H-indole-2-carbonitrile]: the IC50 is < 100 nM.

Regarding `CN(C)S(=O)(=O)Nc1ccc(CC(=O)N2CCN(c3ncnc4sc(CC(F)(F)F)cc34)CC2)cc1` [Compound 51], the IC50 is < 100 nM.

In turn, `CCCc1cc2c(NC3CCN(Cc4ccccc4C)CC3)ncnc2s1` [Compound 153] displayed an IC50 of 500 to 2000 nM.

Take `FC(F)(F)Cc1sc2ncnc(N3CCN(c4nnc(C(F)(F)F)s4)CC3)c2c1I` [Compound 6]: the IC50 was 100 to 500 nM.

`OCc1cc(O)ccc1CN1CCC(Nc2ncnc3sc(CC(F)(F)F)cc23)CC1` [Compound 107] registered an IC50 of 100 to 500 nM.

In turn, `O=C(CC1CCCCC1)N1CCN(c2ncnc3sc(CC(F)(F)F)cc23)CC1` [Compound 89] gave an IC50 of 500 to 2000 nM.

Turning to `N#Cc1cc2c(Cl)c(CN3CCC(Nc4ncnc5sc(CC(F)(F)F)cc45)CC3)ccc2n1C[C@H](O)CO` [Compound 226], the IC50 was < 100 nM.

Consider `CS(=O)(=O)Nc1ccc(CC(=O)N2CCN(c3ncnc4sc(CC(F)(F)F)cc34)CC2)cc1` [Compound 45], for which the IC50 is < 100 nM.

As for `OCc1ccc(CN2CCC(Nc3ncnc4sc(CC(F)(F)F)cc34)CC2)cc1` [Compound 140], the half-maximal inhibitory concentration (IC50) was 500 to 2000 nM.

The compound `FC(F)(F)Cc1cc2c(NCC3CCN(Cc4ccc(Cl)cc4)CC3)ncnc2s1` [Compound 261] yielded an IC50 of 100 to 500 nM.

Consider `N#Cc1c(F)c2cc(CN3CCC(Nc4ncnc5sc(CC(F)(F)F)cc45)CC3)ccc2n1CC(N)=O` [Compound 213], for which the IC50 was < 100 nM.

Compound `N#Cc1cc2cc(CN3CCC(Nc4ncnc5sc(CC(F)(F)F)cc45)CC3)ccc2n1Cc1cc(OCCC2CC2)n[nH]1` [Compound 412] yielded an IC50 of 100 to 500 nM.

In turn, `CCCc1cc2c(NC3CCN(Cc4ccccc4Br)CC3)ncnc2s1` [Compound 152] gave an IC50 of 500 to 2000 nM.

`N#Cc1cc2cc(CN3CCC(Nc4ncnc5sc(CC(F)(F)F)cc45)CC3)ccc2n1CC1CC1` [Compound 178]: the IC50 was < 100 nM.

In the case of `N#Cc1cc2cc(CN3CCC(Nc4ncnc5sc(CC(F)(F)F)cc45)CC3)ccc2n1Cc1cc(OCCCC2CC2)n[nH]1` [Compound 414], the IC50 is 100 to 500 nM.

In the case of `N#Cc1cc2cc(CN3CCC(Nc4c(COCC5CCCC5)cnc5sc(CC(F)(F)F)cc45)CC3)ccc2[nH]1` [Compound 421], the IC50 was in the range of 500 to 2000 nM.

For `OCc1c(CC(F)(F)F)sc2ncnc(NC3CCN(Cc4ccccc4)CC3)c12` [Compound 112], the IC50 fell in the range of 100 to 500 nM.

On to `NS(=O)(=O)c1ccc(CN2CCC(Nc3ncnc4sc(CC(F)(F)F)cc34)CC2)c(Cl)c1` [Compound 142], for which the IC50 is 500 to 2000 nM.

On to `O=C(Cc1ccc(NS(=O)(=O)CNCC(F)(F)F)cc1)N1CCN(c2ncnc3sc(CC(F)(F)F)cc23)CC1` [Compound 62], for which the IC50 is < 100 nM.
